Experimental data published in publication PMC10154249, “Unique progerin C-terminal peptide ameliorates Hutchinson–Gilford progeria syndrome phenotype by rescuing BUBR1” (Nature Aging, 2023).
Values joined by “and” are separate entries in the source; they are usually repeats but may differ in a detail not shown here. Equal values may be shown once.

Legend:
HGADFN167 cells = assay: Ki67 immunofluorescence of HGADFN167 cells; type: cell-based, human
Experimental: Immunofluorescence was performed as described previously. Cells were plated on cover slips in 12-well plates, left overnight before the treatment. Cells were fixed in 1% formaldehyde in culture medium for 10 min at 37 °C and permeabilized with 0.2% Triton X-100 in PBS for 10 min at room temperature. Cells were washed twice in PBS and blocked for 1 h with 5% BSA in PBS and then incubated with primary antibodies at 4 °C overnight, washed three times in PBS and incubated with secondary antibodies for 1 h at room temperature. Cell nuclei were counterstained with a 500 nM concentration of 4,6-diamidino-2-phenylindole (DAPI) (Sigma). Images were acquired by a fluorescence microscope (OLYMPUS FV-1000, Carl Zeiss LSM880 or Leica DMi8) and analyzed with software NIS-Elements AR v.5.0.1 (Nikon), FLUOVIEW v.4.2b (OLYMPUS), ZEN v.2.3 SP1 (Carl Zeiss) and Leica Application Suite X v.3.6.0.24 (Leica). Cells were quantified by investigators who were blinded to the identity of the analyzed cell.

Lmna^G609G/G609G mice = assay: Open field test; type: in vivo, mouse; details: for Distance: LmnaG609G/G609G-UPCP, one line per mouse
Experimental: (§1) For UPCP injection, 14-day-old Lmna^G609G/G609G mice were injected intraperitoneally with either PBS or UPCP (20 mg kg^–1, every other day) and wild-type mice were injected with PBS. All phenotypic analyses were performed after 12 weeks of treatment with UPCP. Bodyweight and lifespan were monitored after UPCP treatment. The survival rate was analyzed by the Kaplan–Meier method. We only included mice that were of sufficient bodyweight at the start of the experiment, typically at least 80% of the average littermate weight of the same sex and genotype. All animals meeting criteria for inclusion were then divided randomly into three groups according to genotype (Lmna^+/+, Lmna^G609G/G609G-Mock and Lmna^G609G/G609G-UPCP).
The mice were acclimated to the testing room for 2 h before the test. Before each individual trial, the testing apparatus was cleaned with 75% ethanol. Mice were placed individually in a random corner of the box (40 × 40 × 35 cm) facing the wall. Their movements, indicating locomotor activity, were recorded with a video camera for 20 min and were analyzed with Ethovision XT 10 (Noldus).

[1] = test system: esophagus of Lmna^G609G/G609G mice; assay: Masson staining of esophagus (lamina propria); type: in vivo, mouse; details: 13 weeks; for aortic adventitia, mean / aortic adventitia: 20 mg kg^–1 i.p.
Experimental: as §1, with “All phenotypic analyses were performed after 12 weeks of treatment with UPCP.” left out
For histological analyses, mice of the indicated genotypes were perfused with PBS, then with 4% paraformaldehyde (PFA). Whole organs were incubated in 4% PFA at 4 °C for 16 h. All samples were paraffin embedded and sectioning by Servicebio. Subsequently, the tissues were deparaffinized and rehydrated before hematoxylin-eosin (HE) or Masson staining or immunohistochemistry (IHC). HE staining was performed using an HE Kit (Absin, catalog no. abs9217), and Masson staining was performed using Masson’s Trichrome Stain Kit (Absin, catalog no. abs9347) according to the manufacturer’s instructions. The thickness of the layers or the areas of fibrosis in the tissues were calculated using ImageJ software by a blinded investigator. For IHC, the sections were completed by the Servicebio. The images were acquired by a microscope (Leica DMi8) and analyzed with Leica Application Suite X v.3.6.0.24 (Leica). For BubR1, cytoplasmic staining in cells was scored on the intensity of staining and the proportion of positive cells by a blinded investigator. The intensity of the staining was graded as 0 (negative, no color), 1 (low positive, light yellow), 2 (positive, brown yellow) or 3 (high positive, brown), and the number of positive cells was graded as 0 (<5%), 1 (5–25%), 2 (25–50%), 3 (51–75%) or 4 (>75%). The final score was defined as staining number score multiplied by staining color score. For lamin B1, p21 or IL-6, the proportion of positive cells was used to quantify the expression of protein in tissues by a blinded investigator.

[2] = 20 mg kg^–1 i.p. every other day

Substance: H-YGRKKRRQRRRYNLRSRTVLCGTCGQPADKASASGSGAQSPQNCSIM-OH (cysteines drawn unpaired) [UPCP, unique progerin C-terminal peptide]
- Ki67 positive cells (HGADFN167 cells; HGADFN167, replicate 1): 53%
- Ki67 positive cells (HGADFN167 cells; HGADFN167, replicate 2): 45%
- Ki67 positive cells (HGADFN167 cells; HGADFN167, replicate 3): 56%
- mobility (Lmna^G609G/G609G mice; 20 mg kg^–1 i.p. every other day, open field, 20 min): enhanced the mobility
- Distance (Lmna^G609G/G609G mice; female mice, Fig. 6g): 3465.62 cm and 4842.39 cm and 4480.91 cm and 4399.08 cm and 3236.68 cm and 4440.93 cm
- Distance (Lmna^G609G/G609G mice; male mice, Fig. 6h): 5127.23 cm and 4324.53 cm and 5298.93 cm and 5261.99 cm and 4436.52 cm and 3525.05 cm
- fibrosis of lamina propria, esophagus [1, 2]: reduced fibrosis of lamina propria in the esophagus and heart
- thickness of lamina propria, esophagus [1, 2]: decreased the thickness of the lamina propria in the esophagus
- aortic adventitia, mean ([1]; sample 1, mean of 3 measurements): 9.139 μm
- aortic adventitia ([1]; sample 1, measurement 1): 9.452 μm
- aortic adventitia ([1]; sample 1, measurement 2): 8.478 μm
- aortic adventitia ([1]; sample 1, measurement 3): 9.488 μm
- aortic adventitia, mean ([1]; sample 2, mean of 3 measurements): 9.054 μm
- aortic adventitia ([1]; sample 2, measurement 1): 9.392 μm
- aortic adventitia ([1]; sample 2, measurement 2): 8.624 μm
- aortic adventitia ([1]; sample 2, measurement 3): 9.147 μm
- aortic adventitia, mean ([1]; sample 3, mean of 3 measurements): 10.936 μm
- aortic adventitia ([1]; sample 3, measurement 1): 10.5409 μm
- aortic adventitia ([1]; sample 3, measurement 2): 9.16 μm
- aortic adventitia ([1]; sample 3, measurement 3): 13.1073 μm
